According to ChEMBL document CHEMBL1126510, “Synthesis of D-3-deoxy-3-phosphonomethyl-myo-inositol and its dimethyl ester - compounds of use in studying the ptdins-3-kinase signalling pathway” (Bioorg Med Chem Lett, 1993):
Calls of active or inactive are those of the source. The rule behind the calls is not given here.

Key:
Settings in all cases: Mus musculus
[1] = tested on: NIH3T3; assay: Inhibitory activity against growth of vis-sis transformed NIH 3T3 cells at 1 mM; IA means inactive; assay type: functional, cell-based
[2] = tested on: NIH3T3; assay: Inhibitory activity against growth of wild type NIH 3T3 cells at 1 mM; assay type: functional
[3] = tested on: NIH3T3; assay: Inhibitory concentration against growth of wild type NIH 3T3 cells without inositol; assay type: functional, cell-based
[4] = tested on: NIH3T3; assay: Inhibitory concentration against growth of vis-sis transformed NIH 3T3 cells with inositol; assay type: functional, cell-based
[5] = tested on: NIH3T3; assay: Inhibitory concentration against growth of wild type NIH 3T3 cells with inositol; assay type: functional, cell-based
[6] = tested on: NIH3T3; assay: Inhibitory concentration against growth of vis-sis transformed NIH 3T3 cells without inositol; assay type: functional, cell-based
[7] = tested on: NIH3T3; assay: Inhibitory concentration against growth of vis-sis transformed NIH 3T3 cells at 1 mM; IA means inactive; assay type: functional, cell-based
[8] = tested on: NIH3T3; assay: Inhibitory activity against growth of wild type NIH 3T3 cells at 1 mM; IA means inactive; assay type: functional, cell-based

Row | SMILES | inhibition [1] | inhibition at 1000 µM [2] [%] | IC50 [3] [mM] | IC50 [4] [mM] | IC50 [5] [mM] | IC50 [6] [mM] | inhibition [7] | inhibition [8]
1 | COP(=O)(CC1C(O)[C@H](O)C(O)[C@@H](O)C1O)OC (some centres undefined) | inactive | 30 |  |  |  |  |  | 
2 | O=P(O)(O)CC1C(O)[C@H](O)C(O)[C@@H](O)C1O (some centres undefined) | inactive | 30 |  |  |  |  |  | 
3 | OCC1C(O)C(O)C(O)C(O)C1O (centres undefined) |  |  | 23.8 | 5.5 | 4.3 | 10 |  | 
4 | C=C1C(O)[C@H](O)C(O)[C@@H](O)C1O (some centres undefined) |  |  |  |  |  |  | inactive | inactive
5 | OC1C(O)C(O)C(CI)C(O)C1O (centres undefined) |  |  | 23.8 | 56.2 | 43 | 19.9 |  | 
